Some results are limits rather than exact numbers.

Series [1] deals with Wnt/β-Catenin signaling pathway. Description: Wnt signaling luciferase (TOPflash) reporter gene assay. Type of series: cell-based. The settings on record: for IC50: luciferase reporter gene assay, mean of three independent experiments, read-out: IC50 (nM) to inhibit the Wnt signaling activity. An excerpt: A dual-luciferase gene reporter assay was used to test inhibitory activities of new compounds on Wnt signaling. […] Therefore, the effects of new compounds on AMPK was examined. […]
In general terms: A reporter such as luciferase makes a cellular process visible.

A short description of series [2]: Cytotoxicity (CC50) during the luciferase gene reporter assay. Type of series: cell-based. Particulars: human, HEK293 cells; short treatment duration of the luciferase gene reporter assay.

In the case of `CC(C)(C)c1c(C(=O)Nc2nc3ccc(F)cc3s2)nnn1-c1ccccc1F` [YA6174, 5-(Tert-butyl)-N-(6-fluorobenzo[d]thiazol-2-yl)-1-(2-fluorophenyl)-1H-1,2,3-triazole-4-carboxamide], in series [1], the inhibition at 1 µM is 40% and the IC50 is over 1000 nM. Besides, the 50% cytotoxic concentration (CC50) in series [2] was over 92 µM.

For `Cc1ccccc1-n1nnc(C(=O)Nc2nc3cc(Br)ccc3s2)c1C` [YA4047, N-(5-Bromobenzo[d]thiazol-2-yl)-5-methyl-1-(o-tolyl)-1H-1,2,3-triazole-4-carboxamide], in series [1], the inhibition at 1 µM turned out to be 14% and the half-maximal inhibitory concentration (IC50) was over 1000 nM. In series [2], this molecule showed a CC50 of over 92 µM.

For the molecule `Cc1c(C(=O)Nc2nc3ccccc3s2)nnn1-c1ccccc1` [YA6029, N-(Benzo[d]thiazol-2-yl)-5-methyl-1-phenyl-1H-1,2,3-triazole-4-carboxamide], in series [1], 1 µM produced 81% inhibition and the IC50 turned out to be 7.82 nM. Besides, the half-maximal cytotoxic concentration (CC50) in series [2] is over 92 µM.

As to `Cc1c(C(=O)Nc2nc3ccccc3s2)nnn1-c1cccc(Cl)c1` [YA4055, N-(Benzo[d]thiazol-2-yl)-1-(3-chlorophenyl)-5-methyl-1H-1,2,3-triazole-4-carboxamide], the CC50 in series [2] is over 92 µM.

Take `Cc1ccccc1-n1nnc(C(=O)Nc2ccc3cc(CN4CCN(C(=O)CCOCCOCCOCCOCCNC(=O)CCCC[C@@H]5SC[C@@H]6NC(=O)N[C@@H]65)CC4)ccc3n2)c1C` [YA6023]: in series [1] (biotinylated analogs), the “inhibitory activity in the reporter assay” value is given as “maintained inhibitory activities”.

For `CCc1ccccc1-n1ncc(C(=O)Nc2nc3ccccc3s2)c1C` [YA4009, N-(Benzo[d]thiazol-2-yl)-1-(2-ethylphenyl)-5-methyl-1H-pyrazole-4-carboxamide], the half-maximal inhibitory concentration (IC50) in series [1] amounted to 6.7 nM. Moreover, the CC50 in series [2] was over 92 µM.

Take `O=C(Nc1nc2ccccc2s1)c1nnn(-c2ccccc2F)c1C(F)(F)F` [YA6168, N-(Benzo[d]thiazol-2-yl)-1-(2-fluorophenyl)-5-(trifluoromethyl)-1H-1,2,3-triazole-4-carboxamide]: in series [1], the inhibition at 1 µM came to 91% and the half-maximal inhibitory concentration (IC50) stood at 3.3 nM. The molecule also gave a CC50 in series [2] of over 92 µM.

As to `COc1ccccc1-n1nnc(C(=O)Nc2ccc3ccccc3n2)n1` [YA70034, 2-(2-Methoxyphenyl)-N-(quinolin-2-yl)-2H-tetrazole-5-carboxamide], the IC50 in series [1] is over 1000 nM. The same molecule returned a 50% cytotoxic concentration (CC50) in series [2] of over 92 µM.

On to `O=C(Nc1nc2ccccc2s1)c1csc(-c2ccccc2)n1` [YA6082], for which, in series [1], the inhibition at 1 µM is 70% and the concentration for half-maximal inhibition (IC50) was determined as 470 nM. The molecule further returned a cytotoxic concentration (CC50) in series [2] of over 92 µM.

Turning to `Cc1c(C(=O)Nc2nc3ccccc3s2)nnn1-c1cc(F)ccc1F` [YA1084, N-(Benzo[d]thiazol-2-yl)-1-(2,5-difluorophenyl)-5-methyl-1H-1,2,3-triazole-4-carboxamide], in series [1], the inhibition at 1 µM came out at 88% and the IC50 was determined as 4.7 nM. Besides, the CC50 in series [2] is over 92 µM.

With `O=C(Nc1ccc2ccccc2n1)c1nnn(-c2ccccc2)n1` [YA6171, 2-Phenyl-N-(quinolin-2-yl)-2H-tetrazole-5-carboxamide], the IC50 in series [1] was over 1000 nM. Further, the 50% cytotoxic concentration (CC50) in series [2] was over 92 µM.

As to `Cc1c(C(=O)Nc2nc3ccccc3s2)nnn1-c1ccccc1OC(F)(F)F` [YA1038, N-(Benzo[d]thiazol-2-yl)-5-methyl-1-(2-(trifluoromethoxy)phenyl)-1H-1,2,3-triazole-4-carboxamide], in series [1], the inhibition at 1 µM is 37% and the IC50 was over 1000 nM. Further, the 50% cytotoxic concentration (CC50) in series [2] was over 92 µM.

As to `Cc1ccccc1-n1ncc(C(=O)Nc2nc(-c3ccccc3)cs2)c1C` [YA7015, 5-Methyl-N-(4-phenylthiazol-2-yl)-1-(o-tolyl)-1H-pyrazole-4-carboxamide], the IC50 in series [1] was over 1000 nM. Further, the CC50 in series [2] is over 92 µM.

`Cc1c(C(=O)Nc2cnc3ccccc3n2)nnn1-c1ccccc1C#N` [YA6137, 1-(2-Cyanophenyl)-5-methyl-N-(quinoxalin-2-yl)-1H-1,2,3-triazole-4-carboxamide]: in series [1], the IC50 was determined as 6 nM. The 50% cytotoxic concentration (CC50) in series [2] is over 92 µM.

As to `Cc1ccccc1-n1nnc(C(=O)Nc2ccc3c(Br)cccc3n2)c1C` [YA6167, N-(5-Bromoquinolin-2-yl)-5-methyl-1-(o-tolyl)-1H-1,2,3-triazole-4-carboxamide], in series [1], the concentration for half-maximal inhibition (IC50) is over 1000 nM. In addition, in series [2], the 50% cytotoxic concentration (CC50) is over 92 µM.

For `Cc1c(C(=O)Nc2nc3ccccc3s2)nnn1-c1ccccc1F` [YA4029, N-(benzo[d]thiazol-2-yl)-1-(2-fluorophenyl)-5-methyl-1H-1,2,3-triazole-4-carboxamide], in series [1], the inhibition at 1 µM was 100% and the half-maximal inhibitory concentration (IC50) came out at 0.46 nM. In series [2], this molecule had a 50% cytotoxic concentration (CC50) of over 92 µM.

In the case of `Cc1c(C(=O)Nc2nc3ccccc3s2)nnn1-c1ccccc1C(F)(F)F` [YA6089, N-(Benzo[d]thiazol-2-yl)-5-methyl-1-(2-(trifluoromethyl)phenyl)-1H-1,2,3-triazole-4-carboxamide], in series [1], the inhibition at 1 µM is 89% and the half-inhibitory concentration (IC50) is 17 nM. Moreover, in series [2], the CC50 is over 92 µM.

As for `Cc1ccccc1-n1nnc(C(=O)Nc2nc3c(Cl)cccc3s2)c1C` [YA4095, N-(4-Chlorobenzo[d]thiazol-2-yl)-5-methyl-1-(o-tolyl)-1H-1,2,3-triazole-4-carboxamide], in series [1], the inhibition at 1 µM is 8% and the half-inhibitory concentration (IC50) is over 1000 nM. In series [2], this molecule displayed a CC50 of over 92 µM.

In the case of `Cc1c(C(=O)Nc2nc3ccccc3s2)nnn1-c1ccc(F)cc1F` [YA1046, N-(Benzo[d]thiazol-2-yl)-1-(2,4-difluorophenyl)-5-methyl-1H-1,2,3-triazole-4-carboxamide], in series [1], testing at 1 µM gave an inhibition of 40% and the IC50 is over 1000 nM. Further, in series [2], the CC50 was over 92 µM.

For `Cc1ccccc1-n1nnc(C(=O)Nc2nc3ccc([N+](=O)[O-])cc3s2)c1C` [YA4057, 5-Methyl-N-(6-nitrobenzo[d]thiazol-2-yl)-1-(o-tolyl)-1H-1,2,3-triazole-4-carboxamide], in series [1], the IC50 was over 1000 nM. Further, in series [2], the CC50 is over 92 µM.

Regarding `Cc1c(C(=O)Nc2nc3ccccc3s2)cnn1-c1ccccc1` [YA4011, N-(Benzo[d]thiazol-2-yl)-5-methyl-1-phenyl-1H-pyrazole-4-carboxamide], in series [1], the IC50 stood at 8.2 nM. In series [2], this molecule displayed a CC50 of over 92 µM.

Consider `Cc1c(C(=O)Nc2nc3ccccc3s2)cnn1-c1c(F)cccc1F` [YA4019, N-(benzo[d]thiazol-2-yl)-1-(2,6-difluorophenyl)-5-methyl-1H-pyrazole-4-carboxamide], for which the IC50 in series [1] is 0.9 nM. The molecule also showed a CC50 in series [2] of over 92 µM.

Take `Cc1c(C(=O)Nc2nc3ccccc3s2)nnn1-c1ccc(Cl)cc1` [YA1074, N-(Benzo[d]thiazol-2-yl)-1-(4-chlorophenyl)-5-methyl-1H-1,2,3-triazole-4-carboxamide]: in series [1], the inhibition at 1 µM is 18% and the IC50 was over 1000 nM. In series [2], this molecule came in with a CC50 of over 92 µM.

In the case of `Cc1ccccc1-n1nnc(C(=O)Nc2ccc3cc(B4OC(C)(C)C(C)(C)O4)ccc3n2)c1C` [YA6063], the IC50 in series [1] turned out to be 148 nM. Also, in series [2], the half-maximal cytotoxic concentration (CC50) is over 92 µM.

For `Cc1cc(/C=C/c2ccc3cc(N(C)C)ccc3[n+]2C)c(C)n1-c1ccccc1` [Pyrvinium, reference compound], in series [1], the inhibition at 1 µM was determined as 69% and the IC50 was determined as 599 nM.

`O=C(Nc1nc2ccccc2s1)c1cnn(-c2ccccc2)c1` [YA6149, N-(Benzo[d]thiazol-2-yl)-1-phenyl-1H-pyrazole-4-carboxamide]: the cytotoxic concentration (CC50) in series [2] is over 92 µM.

By inhibition is commonly meant the change of the read-out against control, counted positive when it falls. A lower inhibition goes with a weak effect. In general, IC50 refers to the point on the concentration scale where inhibition reaches its midpoint. For orientation: CC50 means the concentration at which the toxic effect on the cells reaches its halfway point.
